Assay results taken from ChEMBL document CHEMBL3880386, “Combination comprising the MEK inhibitor N-{3-[3-cyclopropyl-5-(2-fluoro-4-iodo- phenylamino)-6,8-dimethyl-2,4,7-trioxo-3,4,6,7-tetrahydro-2H-pyrido[4,3-d]pyrimidin-1-yl]phenyl}acetamide and the Akt inhibitor N-{(1S)-2-amino-1-[(3-fluorophenyl)methyl]ethyl}-5-chloro-4-(4-chloro-1- …” (2014).

How the values were obtained:
[1] = (§1) Growth inhibition of human DLD1 cells at 1:10 molar ratio of compound in presence of N-{(1S)-2-amino-1-[(3-fluorophenyl)methyl]ethyl}-5-chloro-4-(4-chloro-1-methyl-1H-pyrazol-5-yl)-2-thiophenecar- boxamide incubated for 72 hrs by Cell-titer-Glo reagent based assay; format: functional; conditions: DLD-1, 72 h
[2] = as §1, with “MDA-MB-175-VII” for “DLD1”, “cells assessed combination index” for “cells”; format: functional
[3] = Growth inhibition of human HCT8 cells assessed combination index at 1:10 molar ratio of compound in presence of N-{(1S)-2-amino-1-[(3-fluorophenyl)methyl]ethyl}-5-chloro-4-(4-chloro-1-methyl-1H-pyrazol-5-yl)-2-thiophenecar- boxamide incubated for 72 hrs by Cell-titer-Glo reagent based assay; format: functional, HCT-8
[4] = Growth inhibition of human COLO205 cells assessed combination index at 1:10 molar ratio of compound in presence of N-{(1S)-2-amino-1-[(3-fluorophenyl)methyl]ethyl}-5-chloro-4-(4-chloro-1-methyl-1H-pyrazol-5-yl)-2-thiophenecar- boxamide incubated for 72 hrs by Cell-titer-Glo reagent based assay; format: functional, COLO 205
[5] = Growth inhibition of human COR-L23 cells assessed combination index at 1:10 molar ratio of compound in presence of N-{(1S)-2-amino-1-[(3-fluorophenyl)methyl]ethyl}-5-chloro-4-(4-chloro-1-methyl-1H-pyrazol-5-yl)-2-thiophenecar- boxamide incubated for 72 hrs by Cell-titer-Glo reagent based assay; format: functional
[6] = (§2) Growth inhibition of human RKO cells at 1:10 molar ratio of compound in presence of N-{3-[3-cyclopropyl-5-(2-fluoro-4-iodo-phenylamino)-6,8-dimethyl- 2,4,7-trioxo-3,4,6,7-tetrahydro-2H-pyrido[4,3-d]pyrimidin-1-yl]phenyl}acetamide incubated for 72 hrs by Cell-titer-Glo reagent based assay; format: functional
[7] = Growth inhibition of human COLO205 cells at 1:10 molar ratio of compound in presence of N-{3-[3-cyclopropyl-5-(2-fluoro-4-iodo-phenylamino)-6,8-dimethyl- 2,4,7-trioxo-3,4,6,7-tetrahydro-2H-pyrido[4,3-d]pyrimidin-1-yl]phenyl}acetamide incubated for 72 hrs by Cell-titer-Glo reagent based assay; format: functional; conditions: COLO 205, 72 h
[8] = Growth inhibition of human SW480 cells at 1:10 molar ratio of compound in presence of N-{3-[3-cyclopropyl-5-(2-fluoro-4-iodo-phenylamino)-6,8-dimethyl- 2,4,7-trioxo-3,4,6,7-tetrahydro-2H-pyrido[4,3-d]pyrimidin-1-yl]phenyl}acetamide incubated for 72 hrs by Cell-titer-Glo reagent based assay; format: functional; conditions: SW480, 72 h
[9] = Growth inhibition of human NCI-H1792 cells at 1:10 molar ratio of compound in presence of N-{3-[3-cyclopropyl-5-(2-fluoro-4-iodo-phenylamino)-6,8-dimethyl- 2,4,7-trioxo-3,4,6,7-tetrahydro-2H-pyrido[4,3-d]pyrimidin-1-yl]phenyl}acetamide incubated for 72 hrs by Cell-titer-Glo reagent based assay; format: functional; conditions: NCI-H1792, 72 h
[10] = Growth inhibition of human Calu6 cells at 1:10 molar ratio of compound in presence of N-{3-[3-cyclopropyl-5-(2-fluoro-4-iodo-phenylamino)-6,8-dimethyl- 2,4,7-trioxo-3,4,6,7-tetrahydro-2H-pyrido[4,3-d]pyrimidin-1-yl]phenyl}acetamide incubated for 72 hrs by Cell-titer-Glo reagent based assay; format: functional; conditions: Calu-6, 72 h
[11] = Growth inhibition of human A427 cells at 1:10 molar ratio of compound in presence of N-{3-[3-cyclopropyl-5-(2-fluoro-4-iodo-phenylamino)-6,8-dimethyl- 2,4,7-trioxo-3,4,6,7-tetrahydro-2H-pyrido[4,3-d]pyrimidin-1-yl]phenyl}acetamide incubated for 72 hrs by Cell-titer-Glo reagent based assay; format: functional; conditions: A-427, 72 h
[12] = Growth inhibition of human NCI-H727 cells at 1:10 molar ratio of compound in presence of N-{3-[3-cyclopropyl-5-(2-fluoro-4-iodo-phenylamino)-6,8-dimethyl- 2,4,7-trioxo-3,4,6,7-tetrahydro-2H-pyrido[4,3-d]pyrimidin-1-yl]phenyl}acetamide incubated for 72 hrs by Cell-titer-Glo reagent based assay; format: functional; conditions: NCI-H727, 72 h
[13] = as §2, with “NCI-H23” for “RKO”, “cells assessed combination index” for “cells”; format: functional

SMILES | IC50 [1] | CI [2] | CI [3] | CI [4] | CI [5] | IC50 [6] | IC50 [7] | IC50 [8] | IC50 [9] | IC50 [10] | IC50 [11] | IC50 [12] | CI [13]
CC(=O)Nc1cccc(-n2c(=O)n(C3CC3)c(=O)c3c(Nc4ccc(I)cc4F)n(C)c(=O)c(C)c32)c1 [TRAMETINIB] | 93 nM | 0.39 | 0.39 | 0.88 | 0.17 | – | – | – | – | – | – | – | –
Cn1ncc(Cl)c1-c1cc(C(=O)N[C@H](CN)Cc2cccc(F)c2)sc1Cl [AFURESERTIB] | – | – | – | – | – | 54 nM | 9 nM | 259 nM | 374 nM | 31 nM | 103 nM | 19 nM | 0.76
